In patent US11091462B2, “(Hetero)arylamide compound for inhibiting protein kinase activity” (Shenzhen TargetRx, Inc., priority 2017, dated 2021):
Values joined by “and” are separate entries in the source; they are usually repeats but may differ in a detail not shown here. Equal entries are not always repeated. Where two headings read alike, the source gives them in different places.

Key:
[1] = Pharmacokinetic experiment in rats; type: in vivo, Sprague-Dawley rats; parameters: Cl—pred: unit not given here; details: for AUC(0-t) / Vd / Cmax / MRT inf: male, Sprague-Dawley, rat, plasma; for Vd: read-out: Vz—pred; for F: oral 20 mg/kg vs IV 2 mg/kg; for MRT inf: read-out: MRTINF—pred
Experimental: 9 Male Sprague-Dawley rats, 7-8 weeks old, weighted 210 g, divided into 3 groups with 3 rats in each group, were intravenously (2 mg/kg) or orally (20 mg/kg) given a single dose of compound, and differences in pharmacokinetics of the rats were compared.
Rats were fed with a standard diet and water. Fasting began 16 hours before the test. The drugs were dissolved in PEG400 and dimethyl sulfoxide. Blood was collected from the eyelids at a time point of 0.083 hour, 0.25 hour, 0.5 hour, 1 hour, 2 hours, 4 hours, 6 hours, 8 hours, 12 hours, and 24 hours after administration.
Rats were briefly anesthetized after inhalation of ether, and 300 μL of blood samples were collected from the eyelids to test tubes. There was 30 μL of 1% heparin salt solution in the test tube. The tubes were dried overnight at 60° C. before use. After the blood sample was collected at the last time point, rats were anesthetized with ether and sacrificed.
Immediately after the collection, blood samples were sufficiently mixed by gently inverting the tube at least 5 times, and were placed on ice. Blood samples were centrifuged at 5000 rpm for 5 minutes at 4° C. to separate plasma from red blood cells. 100 μL of the plasma was pipetted into a clean plastic centrifuge tube, marking the name of the compound and collecting time. Plasma was stored at −80° C. prior to analysis. The concentration of the compounds disclosed herein in plasma was determined by LC-MS/MS. Pharmacokinetic parameters were calculated based on drug concentrations in plasma of each animal at different time points.

Ba/F3 parent cells = assay: Cytotoxicity experiment, Ba/F3 parent cells (CellTiter-Glo); type: cell-based; details: Mus musculus, BaF3, 72 h; Ba/F3 parent cells with 8 ng/ml IL-3, 3 days
Experimental: (§1) Example 13: Cytotoxicity Experiment
(§2) The inhibitory effect of the Example compounds on the activity of Ba/F3 parent cell, Ba/F3 Bcr-Abl^T315I cell was examined.
(§3) 1. Preparation of cell plate: Ba/F3 parental cells, Ba/F3 Bcr-Abl^T315I cells were seeded in 96-well plates, and 8 ng/ml IL-3 was added to Ba/F3 parental cells. The cell plates were placed in carbon dioxide culture and incubated overnight.
(§4) 2. Preparation of test compounds: The test compounds were dissolved in DMSO and subjected to a 3.16-fold gradient dilution in triplicate, 9 concentrations were obtained, starting from the concentration of 10 μM.
(§5) 3. Treatment of Cells with compounds: Compounds at various concentrations were transferred to cell plates. The cell plates were incubated in a carbon dioxide incubator for 3 days.
(§6) 4. Detection: CellTiter-Glo4 reagent was added to the cell plates, which were incubated for 30 minutes at room temperature to stabilize the luminescence signal. Readings were performed using a PerkinElmer Envision multi-label analyzer.

[2] = molecular target: T1, Ba/F3 Bcr-Abl^T315I cells (Homo sapiens, UniProt P00519, T315I, cells depend on it); assay: Cytotoxicity experiment, Ba/F3 Bcr-Abl T315I cells (CellTiter-Glo); type: cell-based; details: 3 days, read-out: Ba/F3 Bcr-Abl1^T315I IC50
T1 construct: Ba/F3 Bcr-Abl1^T315I IC50; other: Ba/F3 Bcr-Abl T315I cells, 3 days; fused on or other part: P11274 (Breakpoint cluster region protein)
Experimental: as §1, §2, §3, §4, §5, §6

[3] = tested on: BA/F3 (BCR-ABL^T315I) cells; assay: Pharmacodynamic evaluation in BA/F3 (BCR-ABL T315I) subcutaneous tumor model; type: in vivo, NOD/SCID mice; details: 15 mg/kg twice a day
Experimental: Feeding environment: SPF level.
Each NOD/SCID mouse was subcutaneously inoculated with 5×10^6 BA/F3 (BCR-ABL^T315I) cells in the right dorsal area, wherein the cells were resuspended in PBS (0.1 ml/mouse), to establish a subcutaneous tumor model. […] The efficacy was evaluated according to the relative tumor growth inhibition rate (TGI), and the safety evaluation was performed according to the body weight changes and deaths of the animals.
The experimental protocols for animal experiment disclosed herein were reviewed and approved by the CrownBio IACUC committee. During the experiment, the procedures of the animal experiment were carried out according to the requirements of AAALAC. After tumor inoculation, the effects of tumor growth and treatment on normal animal behavior were routinely monitored, including experimental animal activity, feeding and drinking, weight gain or loss, eye, hair and other abnormalities. Abnormal clinical symptoms observed during the experiment were recorded in the raw data. Mice body weight and tumor size were measured and recorded three times per week during the experiment. The mice were weighed before each administration and administered according to the weight thereof.
Relative tumor growth inhibition rate TGI (%):
T/C % is the relative tumor proliferation rate, that is, the percentage of tumor volume or tumor weight of the treatment group and the control group at a certain time point. T and C are the relative tumor volume (RTV) or tumor weight (TW) of the treatment group and the control group at a specific time point, respectively.
All experimental results were expressed as mean±standard error (x±s), and the significant difference of the tumor volume at 12 days after grouping between the control group and each treatment group was evaluated with one-way ANOVA, and significant difference of the tumor volume between the control group and each treatment group or between each treatment group was evaluated using Games-Howell (heterogeneity of variance), p<0.05 was considered to be significant.

[4] = type: in vivo; details: 15 mg/kg twice a day

Compound	Vz—pred ([1]; PO 20 mg/kg single dose) [L/kg]	AUC(0-t) ([1]; IV 2 mg/kg single dose) [ng·h/mL]	Vd ([1]; IV 2 mg/kg single dose) [L/kg]	AUC(0-t) ([1]; PO 20 mg/kg single dose) [ng·h/mL]	Cmax ([1]; PO 20 mg/kg single dose) [ng/mL]	F [1] [%]	IC50 (Ba/F3 parent cells) [nM]	GI50 [2] [nM]	other results
O=C(Nc1ccc(OC(F)(F)Cl)cc1)c1cnc(N2CC[C@@H](O)C2)c(-c2ccn[nH]2)c1 [ABL-001, (R)—N-(4-(chlorodifluoromethoxy)phenyl)-6-(3-hydroxypyrrolidin-1-yl)-5-(1H-pyrazol-5-yl)nicotinamide, reference compound]	5.14	6900	0.54	13700	1770	19.86	–	–	–
O=C(Nc1ccc(OC(F)(F)Cl)cc1)c1cnc(N2CC[C@@H](O)C2)c(-c2cnccn2)c1 [Example 1, (R)-6-(3-hydroxypyrrolidin-1-yl)-5-(pyrazin-2-yl)-N-(4-(chlorodifluoromethoxy)phenyl)nicotinamide]	1.68	5700	0.7	38000	4330	66.68	> 1000	≤ 100	Cl—pred ([1]; IV 2 mg/kg single dose): 0.35; Cl—pred ([1]; PO 20 mg/kg single dose): 0.54; Cmax ([1]; IV 2 mg/kg single dose): 4820 ng/mL; MRT inf ([1]; IV 2 mg/kg single dose): 1.37 h; MRT inf ([1]; PO 20 mg/kg single dose): 5.43 h
O=C(Nc1ccc(OC(F)(F)Cl)cc1)c1cnc(N2CC[C@@H](O)C2)c(-c2cccnn2)c1 [Example 2, (R)-6-(3-hydroxypyrrolidin-1-yl)-5-(pyridazine-3-yl)-N-(4-(chlorodifluoromethoxy)phenyl)nicotinamide]	–	–	–	–	–	–	> 1000	100 to 500	–
O=C(Nc1ccc(OC(F)(F)Cl)cc1)c1cnc(N2CC[C@@H](O)C2)c(-c2ccnnc2)c1 [Example 3, (R)-6-(3-hydroxypyrrolidin-1-yl)-5-(pyridazine-4-yl)-N-(4-(chlorodifluoromethoxy)phenyl)nicotinamide]	–	–	–	–	–	–	> 1000	500 to 1000	–
Nc1ncc(-c2cc(C(=O)Nc3ccc(OC(F)(F)Cl)cc3)cnc2N2CC[C@@H](O)C2)nn1 [Example 4, (R)-6-(3-hydroxypyrrolidin-1-yl)-5-(3-amino-1,2,4-triazin-6-yl)-N-(4-(chlorodifluoromethoxy)phenyl)nicotinamide]	–	–	–	–	–	–	> 1000	100 to 500	–
O=C(Nc1ccc(OC(F)(F)Cl)cc1)c1cnc(N2CC[C@@H](O)C2)c(-c2cncnn2)c1 [Example 5, (R)-6-(3-hydroxypyrrolidin-1-yl)-5-(1,2,4-triazin-6-yl)-N-(4-(chlorodifluoromethoxy)phenyl)nicotinamide]	–	–	–	–	–	–	> 1000	100 to 500	–
O=C(Nc1ccc(OC(F)(F)Cl)cc1)c1cnc(N2CC[C@@H](O)C2)c(-c2nccnn2)c1 [Example 6, (R)-6-(3-hydroxypyrrolidin-1-yl)-5-(1,2,4-triazin-3-yl)-N-(4-(chlorodifluoromethoxy)phenyl)nicotinamide]	–	–	–	–	–	–	> 1000	> 1000	–
O=C(Nc1ccc(OC(F)(F)Cl)cc1)c1cnc(N2CC[C@@H](F)C2)c(-c2cnccn2)c1 [Example 7, (R)-6-(3-fluoropyrrolidin-1-yl)-5-(pyrazin-2-yl)-N-(4-(chlorodifluoromethoxy)phenyl)nicotinamide]	2.52	3740	0.79	23100	2370	61.95	> 1000	≤ 100	Cl—pred ([1]; IV 2 mg/kg single dose): 0.54; Cl—pred ([1]; PO 20 mg/kg single dose): 0.90; Cmax ([1]; IV 2 mg/kg single dose): 4510 ng/mL; MRT inf ([1]; IV 2 mg/kg single dose): 1.14 h; MRT inf ([1]; PO 20 mg/kg single dose): 5.43 h; Tumor volume (x ± S) ([3]; at day 2 after grouping): 175 ± 17 mm^3; Tumor volume (x ± S) ([3]; at day 5 after grouping): 237 ± 27 mm^3; Tumor volume (x ± S) ([3]; at day 8 after grouping): 432 ± 24 mm^3; Tumor volume (x ± S) ([3]; at day 10 after grouping): 590 ± 51 mm^3; Tumor volume (x ± S) ([3]; at day 12 after grouping): 790 ± 64 mm^3; Tumor volume (x ± S) ([3]; at day 15 after grouping): 1145 mm^3 and 1145 ± 116 mm^3; relative tumor growth inhibition rate TGI ([3]; at day 15 after grouping): 53.1%; Tumor volume (x ± S) ([3]; at day 17 after grouping): 1532 ± 129 mm^3; Tumor volume (x ± S) ([3]; at day 19 after grouping): 1761 ± 212 mm^3; Tumor volume (x ± S) ([3]; at day 22 after grouping): 2216 ± 126 mm^3; Tumor volume (x ± S) ([3]; at the day of grouping): 160 ± 11 mm^3; average body weight of the mice increased by ([4]; at day 22 after grouping): 1.3%; decrease in the body weight of mice during the experiment ([4]; during the experiment): no mouse in the Example 7 15 mg/kg group had a decrease in the body weight
